Results reported in PMC11396062, “The n-Butanol Extract Obtained from the Inner Bark of Tabebuia rosea (Bertol.) DC, Specioside, and Catalposide Induce Leukemia Cell Apoptosis in the Presence of Apicidin” (Molecules, 2024).
Converted amounts (≈) assume the structure as drawn. Where two headings read alike, the source gives them in different places.

Key:
[1] = system: Jurkat cells; experiment: MTT cell viability assay, Jurkat cells; format: cell-based, human; details: for IC50: Homo sapiens, Jurkat, MTT, n = 3; for SI (selectivity index): IC50 PBMC / IC50 Jurkat
Method: (§1) Jurkat and THP-1 cell lines were purchased from the American Type Culture Collection (ATCC, Rockville, MD, USA); Jurkat is a human lymphocytic cell line representing acute T-cell leukemia, and THP-1 is a monocytic cell line that represents acute myelogenous leukemia (AML). […] Cat Nos. […] The cells were maintained at 37 °C in a humidified atmosphere with 5% CO2. The culture medium was exchanged with fresh medium every 2-3 days. Peripheral blood mononuclear cells (PBMCs) were isolated from normal human venous blood. Further, 10 milliliters of human blood was mixed with 10 mL of RPMI-1640 containing 50 μL of heparin and gradually poured over 1 mL of HISTOPAQUE®-1119 (Sigma). The plasma was removed by centrifugation at 3000 rpm for 30 min. The peripheral blood mononuclear cell-containing layer was collected with a pipette and diluted in 4 mL of PBS. PBMCs were harvested by centrifugation at 1500 rpm for 10 min at room temperature, resuspended in RPMI-1640 with 10% FBS, and incubated at 37 °C in 5% CO2 humidified air. […] Doxorubicin was used as a reference standard drug (positive control). After treatment, the medium was discarded; 200 μL of RPMI 1640 medium without phenol red containing 0.5 mg/mL MTT (Sigma Chemical Co., Saint Louis, MO, USA; Cat. No. […] The plates were incubated for four hours at 37 °C with 5% CO2 in a humidified atmosphere. The medium was discarded, and 100 μL of DMSO was added to solubilize the formazan crystals. The absorbance was measured with an ELISA microplate reader at 492 nm (ELx800; BioTek Instruments Inc., Winooski, VT, USA). The percentage of viable cells was calculated on the basis of the nontreated control (taken as 100%). […] Three independent assays were performed, each in triplicate. The selectivity index corresponds to the ratio of the IC50 value calculated for the activity of synthesized compounds on a regular cell line (PBMCs) to that of the IC50 calculated for cancer cell lines (Jurkat and THP-1). Values greater than two were optimal for an efficient selectivity index.

[2] = system: Peripheral blood mononuclear cells (PBMCs); experiment: MTT cell viability assay, PBMC (normal cells); format: cell-based; details: Homo sapiens, n = 3
Method: Jurkat and THP-1 cell lines were purchased from the American Type Culture Collection (ATCC, Rockville, MD, USA); Jurkat is a human lymphocytic cell line representing acute T-cell leukemia, and THP-1 is a monocytic cell line that represents acute myelogenous leukemia (AML). Jurkat and THP-1 cells were maintained in RPMI 1640 medium (Sigma) supplemented with 10% heat-inactivated fetal bovine serum (FBS) (Gibco Cat No. 16140071, Waltham, MA USA), 200 μg/mL penicillin, 200 μg/mL streptomycin, 400 μg/mL neomycin (GIBCO, Cat No. 15640-055), 5 μg/mL amphotericin, and 1 mM sodium pyruvate (all from Sigma Chemical Co., Saint Louis, MO, USA; Cat Nos. A9528-50 MG, M7522-100ML, and S8636-100ML, respectively). The cells were maintained at 37 °C in a humidified atmosphere with 5% CO2. The culture medium was exchanged with fresh medium every 2–3 days. Peripheral blood mononuclear cells (PBMCs) were isolated from normal human venous blood. Further, 10 milliliters of human blood was mixed with 10 mL of RPMI-1640 containing 50 µL of heparin and gradually poured over 1 mL of HISTOPAQUE®-1119 (Sigma). The plasma was removed by centrifugation at 3000 rpm for 30 min. The peripheral blood mononuclear cell-containing layer was collected with a pipette and diluted in 4 mL of PBS. PBMCs were harvested by centrifugation at 1500 rpm for 10 min at room temperature, resuspended in RPMI-1640 with 10% FBS, and incubated at 37 °C in 5% CO2 humidified air.
Cell viability was determined by measuring the mitochondrial activity of live cells via the metabolism of the tetrazolium substrate 3-(4,5-dimethylthiazol-2-yl)-2,5-diphenyl tetrazolium bromide (MTT) and converting it to purple formazan crystals. Briefly, the cells (2 × 10^4 cells/well) were treated with 25, 50, 100, 200, or 400 μg/mL extract diluted in DMSO (at a final concentration of 0.5%) and incubated for 12, 24, or 48 h. Catalposide and specioside were tested at concentrations of 20, 50, and 100 μg/mL for 12, 24, and 48 h. For apicidin, 0.5, 1, and 2 μM apicidin were tested for 24 and 48 h. Doxorubicin was used as a reference standard drug (positive control). After treatment, the medium was discarded; 200 μL of RPMI 1640 medium without phenol red containing 0.5 mg/mL MTT (Sigma Chemical Co., Saint Louis, MO, USA; Cat. No. M2128-500MG) was then added to each well. The plates were incubated for four hours at 37 °C with 5% CO2 in a humidified atmosphere. The medium was discarded, and 100 μL of DMSO was added to solubilize the formazan crystals. The absorbance was measured with an ELISA microplate reader at 492 nm (ELx800; BioTek Instruments Inc., Winooski, VT, USA). The percentage of viable cells was calculated on the basis of the nontreated control (taken as 100%). The IC50 (concentration causing a 50% reduction in cellular viability) values for all the tested compounds were evaluated in Excel using the nonlinear regression curve method. Three independent assays were performed, each in triplicate.

[3] = system: THP-1 cells; experiment: MTT cell viability assay, THP-1 cells; format: cell-based, human; details: for IC50: Homo sapiens, MTT, n = 3, read-out: IC50
Method: as §1

[4] = system: THP-1 cells; experiment: Fluorescence microscopy of nuclear morphology (propidium iodide and Hoechst staining); format: cell-based, human; details: THP-1, APC pretreatment, extract 25 μg/mL
Method: Fluorescence microscopy was used to observe cell nuclear morphology, followed by propidium iodide (50 µg/mL) and Hoechst 333342 (1 mg/mL) staining. THP-1 cells (1 × 10^5 cells/well) were treated with fresh media (control) and with 25, 50, or 100 µg/mL extract for 24 h; 400 µM doxorubicin was used as a positive control. Further, 10 microliters of the cell suspension was mixed with 90 µL of the dye, incubated in a water bath for 5 min at 37 °C, and wrapped in aluminum foil. The cells were examined under an Olympus IX53 fluorescence microscope (Olympus Corporation, Tokyo, Japan). The following formula was used to calculate the percentage of apoptotic cells.

[5] = system: THP-1 cells; experiment: Cell cycle analysis by flow cytometry; format: cell-based, human; details: THP-1, APC pretreatment
Method: After treatment with the extract, 7 × 10^4 cells were harvested, washed with PBS, fixed with 200 µL of ice-cold 70% ethanol, and maintained at 4 °C for 4 h before staining. The cell pellet was washed in 1X PBS, resuspended in 200 µL of Guava Cell Cycle reagent (#4500-0220, Millipore), and incubated in the dark at 37 °C for 30 min before analysis with a Guava flow cytometer (Merck Millipore, Bedford, MA, USA) using InCyte software (version 3.1, Merck Millipore).. Centrifugation was performed at 1200 rpm for 5 min at room temperature for each step.

[6] = system: THP-1 cells; experiment: Flow cytometric apoptosis, Annexin V-CF647/7-AAD; format: cell-based, human; details: THP-1, 24 h, apicidin pretreatment
Method: In 96-well plates, 8 × 10^4 cells were treated with 25, 50, and 100 µg/mL extract and 400 µM doxorubicin (positive control) for 24 and 48 h. The cells were washed with 1X PBS, and apoptotic cells were detected by staining with 100 µL of Annexin V-CF647 and 5 µL of the 7-AAD Apoptosis Annexin Red Kit (FCCH100108 FlowCellect, Millipore, Darmstadt, Germany). The cells were incubated at room temperature for 15 min in the dark and analyzed on a Guava Millipore flow cytometer (Merck Millipore, Bedford, MA, USA) using InCyte software (version 3.1, Merck Millipore). The percentage of annexin V-positive cells was evaluated.

[7] = system: THP-1 cells; experiment: Mitochondrial membrane potential (JC-1); format: cell-based, human; details: THP-1, JC-1, 24 h
Method: The Λᴪm was measured using a Guava Mitochondrial Depolarization Kit (4500-0250 Millipore, Darmstadt, Germany). After pretreatment with 1 µM apicidin for 24 h, the cells were exposed to various concentrations of the extract (25, 50, and 100 µg/mL) for 24 h. The cells were collected and suspended in 100 µL of PBS containing JC-1 and 7-AAD after incubation at 37 °C for 15 min. The fluorescence intensity of the cells was analyzed in a Guava Millipore flow cytometer (Merck Millipore, Bedford, MA, USA) using InCyte software (version 3.1, Merck Millipore).

IC50 ([1]; 12 h)	IC50 ([1]; 24 h)	IC50 ([1]; 48 h)	IC50 ([3]; THP-1, 12 h)	IC50 ([3]; THP-1, 24 h)	IC50 ([3]; THP-1, 48 h)	Compound	SI (selectivity index) ([1]; 12 h)	SI (selectivity index) ([1]; 24 h)	SI (selectivity index) ([1]; 48 h)	IC50 ([2]; 12 h)	IC50 ([2]; 24 h)	IC50 ([2]; 48 h)	SI (selectivity index) ([3]; IC50 PBMC / IC50 THP-1, 12 h)	SI (selectivity index) ([3]; IC50 PBMC / IC50 THP-1, 24 h)	SI (selectivity index) ([3]; IC50 PBMC / IC50 THP-1, 48 h)	apoptosis (nuclear morphology) after APC pretreatment [4]	G0/G1 phase arrest with APC pretreatment [5]	percentage of apoptotic cells, apicidin pretreatment compared with catalposide or specioside treatment [6]	depolarization of the mitochondrial membrane [7]
0.339 ± 1.2 µg/mL (≈ 0.624 µM)	0.258 ± 0.1 µg/mL (≈ 0.475 µM)	0.05 µg/mL (≈ 0.092 µM)	1.27 ± 0.2 µg/mL (≈ 2.33 µM)	0.189 ± 0.1 µg/mL (≈ 0.348 µM)	0.005 ± 0.01 µg/mL (≈ 0.0092 µM)	COc1cccc2c1C(=O)c1c(O)c3c(c(O)c1C2=O)C[C@@](O)(C(=O)CO)C[C@@H]3O[C@H]1C[C@H](N)[C@H](O)[C@H](C)O1 [Doxorubicin, reference compound]	4.02	0.86	0.36	1.36 ± 0.15 µg/mL (≈ 2.51 µM)	0.224 ± 0.1 µg/mL (≈ 0.412 µM)	0.018 ± 0.1 µg/mL (≈ 0.0331 µM)	1.07	1.183	3.6				
						CCC(=O)CCCCC[C@@H]1NC(=O)[C@H]2CCCCN2C(=O)[C@H]([C@@H](C)CC)NC(=O)[C@H](Cc2cn(OC)c3ccccc23)NC1=O [APC, apicidin]										increased apoptosis	increased	increased the percentage of apoptotic cells	decreased mitochondrial membrane polarization
